# Experimental data published in the SangsterLogP compilation.
# Experiment: method code SF-GLC, from DOI: 10.1002/qsar.19850040403
# Conditions: pH 13.0
row,logD,SMILES
1,1.91,CCCNC(C)CC (centres undefined)
2,0.55,CNCC(F)(F)F
3,0.7,CCN(C)C
4,2.68,CCCN(CC)CCC
5,2.18,CCCN(C)CC(F)(F)F
6,0.24,NCC(F)(F)F
7,0.93,CCNC(C)C
8,2.57,CCCCCCCN
9,1.49,CCCCCN
10,2.82,CCCCC(CC)CN (centres undefined)
11,1.33,C=CCNCCC
12,1.88,CCN(CC)CC(F)(F)F
13,0.73,CC(C)CN
14,2.38,CCCN(CC)CC(F)(F)F
15,0.26,CC(C)N
16,2.07,CCCNCC(C)C
17,0.81,C=CCNCC
18,2.12,CCCCNCCC
19,0.15,CCNC
20,2.79,CCCN(CCC)CCC
21,1.06,CN(C)CC(F)(F)F

row,SMILES,logD
1,C1CN2CCC1CC2,1.38
2,CCNCC(F)(F)F,0.74
3,C1CCNC1,0.46
